Earlier results on one compound are cited in US9889132B2, “Pharmaceutical compositions for the treatment of psoriasis” (Special Product's Line S.p.A., priority 2014, dated 2018).

The test system of series [1] is mouse.
Series [2] deals with mammal cells.

As for `COc1cc(Nc2nc(C)cc(C)n2)cc(OC)c1OC` [4,6-dimethyl-N-(3,4,5-trimethoxyphenyl)pyrimidin-2-amine], the LD50 i.p. in series [1] (i.p.) is 780 mg/kg. Also, the LD50 per os in series [1] (per os) is reported as 4110 mg/kg. In addition, the antimitotic action entry in series [2] is listed as “considerable antimitotic action”.
